Key:
Assay in all cases: relative viability (nuclei count vs DMSO), 5 days (fraction); higher = more cells survive
[1] = compound: C1CC(C2=C(C1)C3=C(N2)C=CC(=C3)Cl)C(=O)N [Selisistat] + CS(=O)(=O)N1CCN(Cc2cc3nc(-c4cccc5[nH]ncc45)nc(N4CCOCC4)c3s2)CC1 [Pictilisib] (partner 1 µM)
Summary of the method: (§1)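 A single step with final 0.05% Triton X-100, 1% formaldehyde and 1 ug/ml Hoechst fixed the cells and stained nuclei 5 days after treatment. Lung cancer cell lines in 1536-well plates had been treated by pin tool the day after seeding with one drug alone or a fixed anchor-drug dose plus five library-drug doses (not always all listed) in √10 steps, and nuclei were counted on 4× images. Relative viability is the ratio of nuclei in treated wells to nuclei in vehicle wells, taken as the median of duplicate plates.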

[2] = compound: c1ccc2c(CCNc3ccc(Nc4ccncc4)cc3)c[nH]c2c1 [Serdemetan] + N=C(N)NC(=N)NCCc1ccccc1 [Phenformin] (partner 250 µM)
Summary of the method: as §1

[3] = compound: C1CC(C2=C(C1)C3=C(N2)C=CC(=C3)Cl)C(=O)N [Selisistat] + NC(=O)Nc1cc(-c2cccc(F)c2)sc1C(=O)N[C@H]1CCCNC1 [AZD7762] (partner 0.2 µM)
Summary of the method: as §1

[4] = compound: C1CC(C2=C(C1)C3=C(N2)C=CC(=C3)Cl)C(=O)N [Selisistat] + CC(=O)Nc1cccc(-n2c(=O)n(C3CC3)c(=O)c3c(Nc4ccc(I)cc4F)n(C)c(=O)c(C)c32)c1 [Trametinib] (partner 0.02 µM)
Summary of the method: as §1

Row | Cell Line | relative viability ([1]; first compound 0.4 µM) | relative viability ([1]; first compound 12.65 µM) | relative viability ([1]; first compound 40 µM) | relative viability ([2]; first compound 0.04 µM) | relative viability ([2]; first compound 0.1265 µM) | relative viability ([2]; first compound 0.4 µM) | relative viability ([2]; first compound 1.265 µM) | relative viability ([2]; first compound 4 µM) | relative viability ([3]; first compound 0.4 µM) | relative viability ([3]; first compound 1.265 µM) | relative viability ([3]; first compound 12.65 µM) | relative viability ([3]; first compound 40 µM) | relative viability ([4]; first compound 0.4 µM) | relative viability ([4]; first compound 1.265 µM) | relative viability ([4]; first compound 12.65 µM) | relative viability ([4]; first compound 40 µM) | relative viability ([1]; first compound 1.265 µM) | relative viability ([1]; first compound 4 µM) | relative viability ([3]; first compound 4 µM) | relative viability ([4]; first compound 4 µM)
1 | NCI-H2405 | 0.431 | 0.441 | 0.431 | 0.317 | 0.406 | 0.366 | 0.344 | 0.381 | 0.718 | 0.732 | 0.725 | 0.678 | 0.676 | 0.602 | 0.601 | 0.682 | – | – | – | –
2 | LCLC-97TM1 | 0.148 | 0.185 | 0.218 | 0.455 | 0.382 | 0.463 | – | 0.41 | 0.187 | 0.208 | 0.342 | 0.183 | 0.192 | 0.208 | 0.163 | 0.217 | 0.191 | 0.134 | – | –
3 | NCI-H596 | 0.372 | 0.434 | 0.434 | 0.812 | 0.692 | 0.735 | 0.63 | 0.438 | 1.14 | 1.01 | 1.05 | 1.06 | 0.864 | 0.843 | 0.733 | 0.813 | 0.411 | 0.391 | 0.887 | 0.831
4 | NCI-H727 | 0.354 | – | 0.423 | 0.592 | 0.558 | 0.642 | 0.288 | 0.418 | 0.675 | 0.563 | 0.615 | 0.527 | 0.467 | 0.38 | 0.427 | 0.44 | 0.435 | – | 0.369 | 0.409
5 | H3255 | 0.508 | 0.494 | 0.532 | 0.348 | 0.387 | 0.358 | 0.351 | 0.397 | 0.898 | 0.861 | 0.895 | 0.806 | 0.664 | 0.526 | 0.636 | 0.637 | 0.41 | 0.481 | 0.733 | 0.584
6 | NCI-H1437 | 0.48 | 0.503 | 0.455 | 0.314 | 0.32 | 0.315 | 0.298 | 0.37 | 1.17 | 1.12 | 0.99 | 1.01 | 0.558 | 0.485 | 0.5 | 0.477 | 0.439 | 0.202 | 0.918 | 0.488
7 | LU99A | 0.336 | 0.373 | 0.299 | 0.887 | 0.891 | 0.763 | 0.417 | 0.354 | 0.372 | 0.256 | 0.436 | 0.338 | 0.596 | 0.561 | 0.52 | 0.575 | 0.35 | 0.404 | 0.392 | 0.552
8 | HCC-827 | 0.86 | 0.962 | 1.04 | 0.415 | 0.406 | – | 0.314 | 0.366 | 0.206 | 0.154 | 0.279 | 0.24 | 0.529 | 0.575 | 0.572 | 0.559 | 0.91 | 1.03 | 0.187 | 0.546
9 | LK-2 | 0.645 | 0.499 | 0.456 | 0.318 | 0.64 | 0.423 | 0.215 | 0.335 | 0.434 | 0.265 | 0.296 | 0.434 | 0.994 | 0.677 | 0.656 | 1.01 | 0.502 | 0.575 | 0.323 | 0.711
10 | HCC-366 | 0.098 | 0.0936 | 0.207 | 0.665 | 0.627 | 0.547 | 0.0583 | 0.0869 | 0.315 | 0.225 | 0.186 | 0.166 | 0.435 | 0.302 | 0.301 | 0.285 | 0.135 | 0.129 | 0.257 | 0.329
11 | BEN | 0.581 | 0.548 | 0.521 | 0.283 | 0.252 | 0.271 | – | 0.267 | 0.74 | 0.535 | 0.71 | 0.649 | 1.05 | 0.882 | 1.03 | 0.957 | 0.578 | 0.459 | 0.471 | 0.896
12 | NCI-H23 | 0.562 | 0.567 | 0.51 | 0.855 | 0.752 | 0.887 | 0.56 | 0.746 | 0.297 | 0.193 | 0.31 | 0.169 | 0.402 | 0.318 | 0.427 | 0.485 | 0.462 | – | – | –
13 | NCI-H1395 | 0.617 | 0.656 | 0.557 | 0.448 | 0.448 | 0.471 | 0.388 | 0.332 | 0.377 | 0.393 | 0.394 | 0.4 | 1.13 | 0.939 | 0.979 | 0.917 | 0.609 | 0.564 | – | –
14 | 201T | 0.69 | 0.673 | 0.685 | 0.435 | 0.451 | 0.432 | 0.353 | 0.432 | 0.644 | 0.623 | 0.602 | 0.659 | 0.761 | 0.655 | 0.691 | 0.749 | 0.648 | 0.58 | 0.7 | 0.71
15 | NCI-H2170 | 0.323 | 0.303 | 0.378 | 0.374 | 0.354 | 0.383 | 0.35 | 0.336 | 0.868 | 0.939 | 0.854 | 0.911 | 1.07 | 0.939 | 0.919 | 0.973 | 0.338 | 0.275 | 0.82 | 0.85
16 | NCI-H460 | 0.439 | 0.317 | 0.33 | 0.47 | 0.505 | 0.446 | 0.145 | 0.09 | 0.617 | 0.488 | 0.571 | 0.697 | 0.129 | 0.128 | 0.117 | 0.142 | 0.282 | 0.164 | – | 0.0976
17 | HCC-15 | 0.813 | 0.814 | 0.793 | 0.428 | 0.459 | 0.457 | 0.337 | 0.367 | 1.34 | 1.23 | 1.3 | 1.55 | 0.453 | 0.433 | 0.37 | 0.468 | 0.775 | – | 1.16 | –

From the supplement of paper PMC10307832
